Data taken from patent publication US20190185479A1, “BICYCLIC NITROGENATED HETEROCYCLIC COMPOUND” (MITSUBISHI TANABE PHARMA CORPORATION, priority 2016, published 2019).

Columns and labels:
Format in all cases: biochemical
Human PDE7B (hPDE7B) = molecular target: T1, Human PDE7B (hPDE7B) (Homo sapiens, UniProt Q9NP56); assay: Measurement of PDE7 inhibitory activity (Experimental Example 1; residual cAMP, LANCE Ultra cAMP TR-FRET); settings: cAMP 3 nmol/L, room temperature 60 minutes
T1 construct: made in house; host or cells: COS-7 cells
Summary of the method: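 hPDE7B from transfected COS-7 cells reacted with 3 nmol/L cAMP (final) and compound (2% DMSO) in 50 mmol/L Tris-HCl pH 7.5, 1 mmol/L MgCl2, 0.1% BSA, 0.5 mmol/L DTT, 60 min at room temperature. Reaction stopped with IBMX; residual cAMP measured by TR-FRET. Inhibition scaled between no-compound and no-enzyme controls.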

hPDE10A = hPDE10A (Homo sapiens, UniProt Q9Y233); assay: PDE10 inhibition assay (IC50), Experimental Example 3; settings: for IC50: hPDE10A, read-out: PDE inhibition assay IC50, PDE10; for inhibition at 10 µM: at 10 μmol/L
Procedure: (§1) PDE7 inhibitory assay was carried out by reacting the mixture of a compound, hPDE7B, and cAMP, and measuring the residual cAMP by a detection method using LANCE (registered trademark) Ultra cAMP Detection Kit (ParkinElmer). The compound was dissolved in DMSO, and diluted so that the concentration would become 50 times of the final concentration. The hPDE7B and cAMP were diluted with an assay buffer (50 mmol/L Tris-HCl, 1 mmol/L MgCl2, 0.1% BSA, 0.5 mmol/L DTT, pH7.5) so that the hPDE7B would have an appropriate enzyme activity and the concentration of cAMP would become 6 nmol/L. To a 96 well plate were added the compound (2 μL) (DMSO final concentration: 2%), hPDE7B (48 μL), and cAMP (50 μL) (concentration at the reaction: 3 nmol/L), and the resulting mixture was reacted at room temperature for 60 minutes. The reaction solution (20 μL) was subjected to a TR-FRET method according to the protocol specified by the kit to measure the concentration of the residual cAMP. In the assay, to a tracer solution specified by the kit was added 0.5 mmol/L of 3-isobutyl-1-methylxanthine (IBMX, nonselective PDE inhibitor) in order to stop the PDE enzyme reaction after the completion of reaction until the measurement.
(§2) The prediction of PDE7 selectivity was evaluated by comparing each IC50 value of a compound against PDE4, 8, and 10 with the IC50 value of said compound against PDE7B.
(§3) hPDE4D, hPDE8B, and hPDE10A were prepared by the same method as [Method for preparing samples 2].
(§4) PDE4, 8, and 10 inhibitory assays were carried out by the same method as [Assay procedure 1].
(§5) The reaction without a compound wad defined as “0% inhibition”, the reaction without each PDE was defined as “100% inhibition”, and the calculation of IC50 value was carried out by the same method as <Method for data calculation 1>.

hPDE8B = molecular target: T2, hPDE8B (Homo sapiens, UniProt O95263); assay: PDE8 inhibition assay (IC50), Experimental Example 3; settings: for inhibition at 1 µM / inhibition rate (%) at prescribed concentration, PDE8: at 1 μmol/L; for inhibition at 1 µM / inhibition at 0.1 µM / inhibition at 10 µM: read-out: inhibition rate (%) at prescribed concentration, PDE8; for IC50: hPDE8B, read-out: PDE inhibition assay IC50, PDE8; for inhibition at 0.1 µM: at 0.1 μmol/L; for inhibition at 10 µM: at 10 μmol/L
T2 construct: purchased SB Drug Discovery
Procedure: as §1, §2, §3, §4, §5

hPDE4D = molecular target: T3, hPDE4D (Homo sapiens, UniProt Q08499); assay: PDE4 inhibition assay (IC50), Experimental Example 3; settings: for inhibition at 1 µM: at 1 μmol/L; for inhibition at 1 µM / inhibition at 0.1 µM / inhibition at 10 µM: read-out: inhibition rate (%) at prescribed concentration, PDE4; for IC50: hPDE4D, read-out: PDE inhibition assay IC50, PDE4; for inhibition at 0.1 µM: at 0.1 μmol/L; for inhibition at 10 µM: at 10 μmol/L
T3 construct: purchased SB Drug Discovery
Procedure: as §1, §2, §3, §4, §5

[1] = read-out: inhibition rate (%) at prescribed concentration, PDE10

T2 sequence (O95263 whole entry): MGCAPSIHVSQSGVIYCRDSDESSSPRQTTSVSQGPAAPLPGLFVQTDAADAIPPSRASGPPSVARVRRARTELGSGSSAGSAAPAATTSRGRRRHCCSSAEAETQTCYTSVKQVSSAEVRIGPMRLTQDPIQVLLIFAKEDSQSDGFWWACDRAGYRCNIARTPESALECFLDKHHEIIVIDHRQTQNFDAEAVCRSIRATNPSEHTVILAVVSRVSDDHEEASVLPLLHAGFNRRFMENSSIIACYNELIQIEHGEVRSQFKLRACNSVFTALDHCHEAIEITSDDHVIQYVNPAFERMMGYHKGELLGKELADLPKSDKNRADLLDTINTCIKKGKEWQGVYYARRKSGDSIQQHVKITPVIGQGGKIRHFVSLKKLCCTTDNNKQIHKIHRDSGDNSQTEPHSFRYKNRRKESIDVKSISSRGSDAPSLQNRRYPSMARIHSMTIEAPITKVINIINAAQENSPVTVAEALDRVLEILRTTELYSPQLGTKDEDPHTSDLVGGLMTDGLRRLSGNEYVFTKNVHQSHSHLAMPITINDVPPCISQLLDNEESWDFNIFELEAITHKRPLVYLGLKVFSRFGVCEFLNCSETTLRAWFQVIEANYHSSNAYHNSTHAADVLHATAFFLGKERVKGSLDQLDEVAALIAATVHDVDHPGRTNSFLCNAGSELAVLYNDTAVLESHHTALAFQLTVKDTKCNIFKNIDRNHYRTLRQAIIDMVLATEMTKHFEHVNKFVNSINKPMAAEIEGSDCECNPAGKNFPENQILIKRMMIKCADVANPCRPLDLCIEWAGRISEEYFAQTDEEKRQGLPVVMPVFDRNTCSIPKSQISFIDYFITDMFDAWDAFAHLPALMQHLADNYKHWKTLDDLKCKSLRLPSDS
T1 sequence (Q9NP56 whole entry): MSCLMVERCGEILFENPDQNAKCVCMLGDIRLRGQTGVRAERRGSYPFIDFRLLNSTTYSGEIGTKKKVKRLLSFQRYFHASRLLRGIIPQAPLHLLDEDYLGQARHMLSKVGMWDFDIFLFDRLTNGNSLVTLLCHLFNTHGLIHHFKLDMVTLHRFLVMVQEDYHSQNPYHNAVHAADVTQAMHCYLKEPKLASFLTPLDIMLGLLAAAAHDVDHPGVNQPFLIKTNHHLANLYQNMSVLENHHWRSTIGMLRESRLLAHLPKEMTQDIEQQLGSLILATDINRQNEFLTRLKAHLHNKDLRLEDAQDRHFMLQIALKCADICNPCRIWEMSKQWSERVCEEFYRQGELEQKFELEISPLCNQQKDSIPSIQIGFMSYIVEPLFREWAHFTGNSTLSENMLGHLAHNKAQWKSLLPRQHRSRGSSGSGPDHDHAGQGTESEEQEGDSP
hPDE10A, sequence (Q9Y233 290-1055 limits assumed): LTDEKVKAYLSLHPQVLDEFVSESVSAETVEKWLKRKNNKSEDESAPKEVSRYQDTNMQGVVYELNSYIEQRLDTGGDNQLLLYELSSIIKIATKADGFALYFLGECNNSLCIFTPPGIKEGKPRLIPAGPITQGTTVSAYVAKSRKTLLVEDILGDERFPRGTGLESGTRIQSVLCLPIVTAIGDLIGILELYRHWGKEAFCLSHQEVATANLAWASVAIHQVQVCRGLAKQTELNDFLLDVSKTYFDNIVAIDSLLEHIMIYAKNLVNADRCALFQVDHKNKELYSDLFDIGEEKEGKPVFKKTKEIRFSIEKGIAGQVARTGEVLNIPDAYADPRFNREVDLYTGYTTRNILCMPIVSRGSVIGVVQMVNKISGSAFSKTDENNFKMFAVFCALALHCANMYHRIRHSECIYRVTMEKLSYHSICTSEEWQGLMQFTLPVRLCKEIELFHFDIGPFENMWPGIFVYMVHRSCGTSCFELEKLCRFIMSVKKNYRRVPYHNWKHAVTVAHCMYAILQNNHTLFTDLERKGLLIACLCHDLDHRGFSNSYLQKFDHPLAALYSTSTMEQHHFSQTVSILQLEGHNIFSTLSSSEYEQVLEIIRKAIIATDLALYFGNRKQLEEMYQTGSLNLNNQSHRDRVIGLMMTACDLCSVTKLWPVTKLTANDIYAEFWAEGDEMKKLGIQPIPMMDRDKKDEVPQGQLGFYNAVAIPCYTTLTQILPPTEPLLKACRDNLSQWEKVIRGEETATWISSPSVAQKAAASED
T3 sequence (Q08499 whole entry): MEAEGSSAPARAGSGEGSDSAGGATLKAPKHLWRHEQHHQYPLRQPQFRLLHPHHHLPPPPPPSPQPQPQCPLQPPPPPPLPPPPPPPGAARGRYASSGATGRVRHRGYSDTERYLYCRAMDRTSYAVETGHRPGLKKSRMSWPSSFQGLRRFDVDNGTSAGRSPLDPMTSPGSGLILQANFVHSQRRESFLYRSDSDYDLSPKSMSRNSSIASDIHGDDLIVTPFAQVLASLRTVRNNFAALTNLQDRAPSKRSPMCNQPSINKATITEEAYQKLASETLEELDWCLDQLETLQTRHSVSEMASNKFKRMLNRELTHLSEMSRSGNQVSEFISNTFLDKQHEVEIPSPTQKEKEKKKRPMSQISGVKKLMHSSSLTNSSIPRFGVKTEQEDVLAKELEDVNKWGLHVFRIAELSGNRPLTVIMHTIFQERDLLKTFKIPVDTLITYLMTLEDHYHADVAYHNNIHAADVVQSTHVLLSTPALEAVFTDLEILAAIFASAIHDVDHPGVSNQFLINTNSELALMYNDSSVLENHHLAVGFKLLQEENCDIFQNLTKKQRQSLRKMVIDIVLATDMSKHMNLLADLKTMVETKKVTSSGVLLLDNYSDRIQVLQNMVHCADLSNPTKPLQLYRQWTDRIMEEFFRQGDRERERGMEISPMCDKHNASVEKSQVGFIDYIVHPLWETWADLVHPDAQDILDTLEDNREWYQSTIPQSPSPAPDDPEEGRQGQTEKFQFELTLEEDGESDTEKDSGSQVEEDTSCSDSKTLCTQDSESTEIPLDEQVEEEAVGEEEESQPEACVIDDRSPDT

| IC50 (Human PDE7B (hPDE7B)) [µM] | IC50 (hPDE10A) [µM] | IC50 (hPDE4D) [µM] | IC50 (hPDE8B) [µM] | SMILES | other results |
| --- | --- | --- | --- | --- | --- |
| < 0.01 | 1.9 |  |  | CC1CCCCC1c1nnc2c(N)ncnn12 (single isomer, unassigned) [Example 238, 3-(cis-2-methylcyclohexyl) [1,2,4]triazolo[3,4-f][1,2,4]triazin-8-amine] | inhibition at 1 µM (hPDE8B): 51%; inhibition at 1 µM (hPDE4D): 63% |
| 0.07 |  | 1.3 |  | Nc1nccn2c(N3CCCC(Cc4ccccc4)C3)nnc12 (stereo not drawn) [Example 48] | inhibition at 1 µM (hPDE10A; at 1 μmol/L, read-out: inhibition rate (%) at prescribed concentration, PDE10): 52%; inhibition at 1 µM (hPDE8B): 79% |
| 0.06 | 3.7 |  |  | CC(C)(C)OC(=O)N1CCC[C@H](c2nnc3c(N)nccn23)C1 [Example 167] | inhibition at 0.1 µM (hPDE8B): 98%; inhibition at 0.1 µM (hPDE4D): 66% |
| 0.08 | 11.9 | 5.4 | 5.1 | Nc1nccn2c(N3CCCCCC3)nnc12 [Example 29] |  |
| 0.39 |  | 7.8 |  | Nc1nccn2c(C3CCCCC3)ncc12 [Example 180, 3-cyclohexylimidazo[1,5-a]pyrazin-8-amine] | inhibition at 10 µM (hPDE10A; [1]): 41%; inhibition at 10 µM (hPDE8B): 36% |
| 0.54 | 0.5 |  |  | Cc1nn(C2CCCCC2)c2ncnc(N)c12 [Example 184] | inhibition at 10 µM (hPDE8B): 18%; inhibition at 10 µM (hPDE4D): 48% |
| < 0.01 | 5.57 | 1.88 | 1.51 | CC1(C)CCCN(c2nnc3c(N)ncc(Cl)n23)C1 [Example 248, 5-chloro-3-(3,3-dimethylpiperidin-1-yl) [1,2,4]triazolo[4,3-a]pyrazin-8-amine] |  |
| < 0.01 | 2.86 |  |  | CC1(C)CCCC(c2nnc3c(N)ncnn23)C1 (single isomer, unassigned) [Example 242, 3-(3,3-dimethylcyclohexyl) [1,2,4]triazolo[3,4-f][1,2,4]triazin-8-amine] | inhibition at 1 µM (hPDE8B): 84%; inhibition at 1 µM (hPDE4D): 53% |
| 0.01 | 8.91 | 1.49 |  | CC1CCCC(c2nnc3c(N)ncnn23)C1 (single isomer, unassigned) [Example 72, 3-(cis-3-methylcyclohexyl) [1,2,4]triazolo[3,4-f][1,2,4]triazin-8-amine] | inhibition rate (%) at prescribed concentration, PDE8 (hPDE8B): 62% at 1 |
| 0.02 | 21.1 | 4.59 | 7.66 | CC1(C)CCCN(c2nnc3c(N)nccn23)C1 [Example 26, 3-(3,3-dimethylpiperidin-1-yl) [1,2,4]triazolo[4,3-a]pyrazin-8-amine] |  |
| 0.03 |  | 3.79 | 4.4 | Nc1nccn2c(C3[C@H]4CCCC[C@@H]34)nnc12 (stereo partly drawn) [Example 164, 3-[(1R,6S,7r)-bicyclo[4.1.0]hept-7-yl][1,2,4]triazolo[4,3-a]pyrazin-8-amine] | inhibition at 10 µM (hPDE10A; [1]): 41% |
| < 0.01 | 21.8 | 5.9 | 9 | Nc1nccn2c([C@H]3C[C@@H](C(F)(F)F)CCC3(F)F)nnc12 (racemic) [Example 172, 3-[cis-2,2-difluoro-5-(trifluoromethyl)cyclohexyl][1,2,4]triazolo[4,3-a]pyrazin-8-amine] |  |
| 0.08 | 34.9 | 3.41 |  | Nc1nccn2c([C@@H]3C[C@@H]4[C@H](C3)C4(F)F)nnc12 [Example 160] | inhibition at 1 µM (hPDE8B): 54% |
| 0.01 | 5.2 | 3.6 | 4.2 | CC1CC(C)CN(c2nnc3c(N)nccn23)C1 (single isomer, unassigned) [Example 226, 3-[trans-3,5-dimethylpiperidin-1-yl][1,2,4]triazolo[4,3-a]pyrazin-8-amine] |  |
| < 0.01 | 52.6 | 1.6 |  | Nc1ncnn2c(C3CCCC(C(F)(F)F)C3)nnc12 (single isomer, unassigned) [Example 244, 3-[cis-3-(trifluoromethyl)cyclohexyl][1,2,4]triazolo[3,4-f][1,2,4]triazin-8-amine] | inhibition at 1 µM (hPDE8B): 73% |
| 0.08 | 25 | 5.21 | 2.74 | Nc1nccn2c(N3CCCCC34CC4)nnc12 [Example 38] |  |

Continued, compound first:

| SMILES | IC50 (Human PDE7B (hPDE7B)) [µM] | IC50 (hPDE10A) [µM] | IC50 (hPDE4D) [µM] | IC50 (hPDE8B) [µM] | other results |
| --- | --- | --- | --- | --- | --- |
| Nc1ncnc2c1nnn2C1CCC(F)(F)CC1 [Example 104] | 0.17 |  | 9.45 | 2.06 | inhibition at 10 µM (hPDE10A; [1]): 25% |
| Nc1cncn2c(C3CCCCC3)nnc12 [Example 189, 3-cyclohexyl[1,2,4]triazolo[4,3-c]pyrimidin-8-amine] | 0.47 |  |  |  | inhibition at 10 µM (hPDE10A; [1]): 0.9%; inhibition at 10 µM (hPDE8B): 24%; inhibition at 10 µM (hPDE4D): 22% |
| Nc1ncnc2c1nnn2C1CCCCC1F (single isomer, unassigned) [Example 195, 3-(cis-2-fluorocyclohexyl)-3H-[1,2,3]triazolo[4,5-d]pyrimidin-7-amine] | 0.05 | 30.6 | 5.7 | 1.41 |  |
| CC1CCCC(c2nnc3c(N)ncnn23)C1 (single isomer, unassigned) [Example 240, 3-(cis-3-methylcyclohexyl) [1,2,4]triazolo[3,4-f][1,2,4]triazin-8-amine] | < 0.01 | 3.1 |  |  | inhibition rate (%) at prescribed concentration, PDE8 (hPDE8B): 95% at 1; inhibition at 1 µM (hPDE4D): 86% |
| Nc1ncnn2c(C3CCCC(F)(F)C3)nnc12 (racemic) [Example 82, 3-(3,3-difluorocyclohexyl) [1,2,4]triazolo[3,4-f][1,2,4]triazin-8-amine] | 0.04 | 17.9 | 6.21 | 2.49 |  |
| CC1CCC(C(F)(F)F)CC1c1nnc2c(N)ncnn12 (racemic) [Example 83, 3-[2-methyl-5-(trifluoromethyl)cyclohexyl][1,2,4]triazolo[3,4-f][1,2,4]triazin-8-amine] | < 0.01 | 3.04 |  | 1.33 | inhibition at 1 µM (hPDE4D): 53% |
| Nc1nccn2c(N3C4CCCC3CC4)nnc12 [Example 67] | 0.09 | 31.8 | 21 | 15 |  |
| CC1CCC(C(F)(F)F)CC1c1nnc2c(N)nccn12 (single isomer, unassigned) [Example 174, 3-[2-methyl-5-(trifluoromethyl)cyclohexyl][1,2,4]triazolo[4,3-a]pyrazin-8-amine] | 0.003 | 1.3 | 6 | 6.8 |  |
| CC1CCC(C)N(c2nnc3c(N)ncc(C#N)n23)C1 (single isomer, unassigned) [Example 234, 8-amino-3-(2,5-dimethylpiperidin-1-yl) [1,2,4]triazolo[4,3-a]pyrazine-5-carbonitrile] | 0.00015 | 3.2 | 6.3 | 2.7 |  |
| CC1CCC(F)(F)CC1c1nnc2c(N)nccn12 (stereo not drawn) [Example 153] | 0.07 | 18.6 | 35.1 | 21.9 |  |
| Nc1nccn2c(C3CCC4CC4C3)nnc12 (single isomer, unassigned) [Example 221, 3-(bicyclo[4.1.0]hept-3-yl) [1,2,4]triazolo[4,3-a]pyrazin-8-amine] | 0.06 | 4.8 |  |  | inhibition at 0.1 µM (hPDE8B): 69%; inhibition at 0.1 µM (hPDE4D): 55% |
